Data reported in patent US20250236608A1, “EGFR INHIBITORS” (Blueprint Medicines Corporation, priority 2022, published 2025).

Assays:
[1] = target: EGFR L858R (Homo sapiens (Human), UniProt P00533, L858R); test: Biochemical EGFR inhibition assay, EGFR L858R; conditions: Caliper mobility shift; 1.0 mM ATP or ATP Km; read-out: Enz EGFR_L858R IC50
[2] = target: EGFR (d746-750) (Homo sapiens (Human), UniProt P00533, DEL746-750); test: Biochemical EGFR inhibition assay, EGFR (d746-750); conditions: Caliper mobility shift; 1.0 mM ATP or ATP Km; read-out: Enz EGFR_Exon19-del746-750 IC50
[3] = target: pEGFR (Tyr1068) in PC-9 cells (Ex19Del) (Homo sapiens (Human), UniProt P00533, DEL746-750); test: PC-9 pEGFR AlphaLISA assay; format: cell-based; conditions: 4 hours incubation, p-EGFR (Tyr1068) AlphaLISA, read-out: Ext pEGFR_PC-9 Ex19Del IC50
Outline: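 First, cells settled overnight in 10% FBS medium. Second, a 10-point, 4-fold series of test agents was applied for 4 h at 37° C. Third, lysates were probed with AlphaLISA acceptor and donor beads, incubated overnight in the dark. Last, IC50 was taken from the dose-response.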

EGFR (d746-750), sequence (P00533 other isoform, or with tags, fused parts or gaps del 1-694/del 746-750 limits assumed): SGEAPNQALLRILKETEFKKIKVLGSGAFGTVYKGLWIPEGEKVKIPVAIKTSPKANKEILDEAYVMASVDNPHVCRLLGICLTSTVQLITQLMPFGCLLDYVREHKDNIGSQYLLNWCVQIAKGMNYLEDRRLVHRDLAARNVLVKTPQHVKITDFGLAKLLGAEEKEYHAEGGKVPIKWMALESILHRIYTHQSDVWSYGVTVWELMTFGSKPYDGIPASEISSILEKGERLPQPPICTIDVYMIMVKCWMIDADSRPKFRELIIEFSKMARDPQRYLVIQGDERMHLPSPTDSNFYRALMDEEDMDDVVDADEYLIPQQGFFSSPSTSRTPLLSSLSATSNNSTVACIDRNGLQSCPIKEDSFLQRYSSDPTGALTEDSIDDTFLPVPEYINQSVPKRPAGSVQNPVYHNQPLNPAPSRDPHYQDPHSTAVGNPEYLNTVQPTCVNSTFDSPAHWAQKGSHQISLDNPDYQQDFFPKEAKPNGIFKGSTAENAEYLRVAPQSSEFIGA
EGFR L858R, sequence (P00533 25-1210 L858R): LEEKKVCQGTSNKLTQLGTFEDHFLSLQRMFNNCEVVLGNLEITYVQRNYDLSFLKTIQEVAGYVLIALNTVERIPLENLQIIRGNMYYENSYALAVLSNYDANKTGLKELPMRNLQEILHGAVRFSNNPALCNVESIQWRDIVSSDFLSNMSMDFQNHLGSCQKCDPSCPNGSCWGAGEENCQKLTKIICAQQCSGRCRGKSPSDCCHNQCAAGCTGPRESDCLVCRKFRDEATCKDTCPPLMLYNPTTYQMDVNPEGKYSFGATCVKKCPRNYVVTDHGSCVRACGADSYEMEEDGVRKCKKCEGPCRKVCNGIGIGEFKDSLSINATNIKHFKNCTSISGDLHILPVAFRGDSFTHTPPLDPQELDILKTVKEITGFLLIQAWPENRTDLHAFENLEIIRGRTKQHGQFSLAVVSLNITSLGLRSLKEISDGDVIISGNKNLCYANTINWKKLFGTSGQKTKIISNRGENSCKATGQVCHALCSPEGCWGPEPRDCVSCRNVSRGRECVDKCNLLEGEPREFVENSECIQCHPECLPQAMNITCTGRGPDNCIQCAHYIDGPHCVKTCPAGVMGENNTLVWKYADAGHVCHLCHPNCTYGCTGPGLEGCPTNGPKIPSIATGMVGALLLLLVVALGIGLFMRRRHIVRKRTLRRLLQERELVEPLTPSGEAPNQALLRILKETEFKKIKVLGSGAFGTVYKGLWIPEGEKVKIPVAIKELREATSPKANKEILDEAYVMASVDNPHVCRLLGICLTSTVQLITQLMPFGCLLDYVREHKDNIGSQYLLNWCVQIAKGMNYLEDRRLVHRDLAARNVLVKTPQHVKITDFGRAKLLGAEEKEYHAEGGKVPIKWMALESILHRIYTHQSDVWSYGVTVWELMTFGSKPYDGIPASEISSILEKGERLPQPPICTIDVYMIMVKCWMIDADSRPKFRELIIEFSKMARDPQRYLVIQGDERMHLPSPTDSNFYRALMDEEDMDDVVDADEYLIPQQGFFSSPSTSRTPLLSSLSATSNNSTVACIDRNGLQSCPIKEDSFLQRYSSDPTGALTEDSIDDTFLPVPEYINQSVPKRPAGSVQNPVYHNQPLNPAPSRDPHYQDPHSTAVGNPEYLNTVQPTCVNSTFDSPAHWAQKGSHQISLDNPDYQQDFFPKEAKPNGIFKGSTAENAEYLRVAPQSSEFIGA
pEGFR (Tyr1068) in PC-9 cells (Ex19Del), sequence (P00533 other isoform, or with tags, fused parts or gaps del 746-750): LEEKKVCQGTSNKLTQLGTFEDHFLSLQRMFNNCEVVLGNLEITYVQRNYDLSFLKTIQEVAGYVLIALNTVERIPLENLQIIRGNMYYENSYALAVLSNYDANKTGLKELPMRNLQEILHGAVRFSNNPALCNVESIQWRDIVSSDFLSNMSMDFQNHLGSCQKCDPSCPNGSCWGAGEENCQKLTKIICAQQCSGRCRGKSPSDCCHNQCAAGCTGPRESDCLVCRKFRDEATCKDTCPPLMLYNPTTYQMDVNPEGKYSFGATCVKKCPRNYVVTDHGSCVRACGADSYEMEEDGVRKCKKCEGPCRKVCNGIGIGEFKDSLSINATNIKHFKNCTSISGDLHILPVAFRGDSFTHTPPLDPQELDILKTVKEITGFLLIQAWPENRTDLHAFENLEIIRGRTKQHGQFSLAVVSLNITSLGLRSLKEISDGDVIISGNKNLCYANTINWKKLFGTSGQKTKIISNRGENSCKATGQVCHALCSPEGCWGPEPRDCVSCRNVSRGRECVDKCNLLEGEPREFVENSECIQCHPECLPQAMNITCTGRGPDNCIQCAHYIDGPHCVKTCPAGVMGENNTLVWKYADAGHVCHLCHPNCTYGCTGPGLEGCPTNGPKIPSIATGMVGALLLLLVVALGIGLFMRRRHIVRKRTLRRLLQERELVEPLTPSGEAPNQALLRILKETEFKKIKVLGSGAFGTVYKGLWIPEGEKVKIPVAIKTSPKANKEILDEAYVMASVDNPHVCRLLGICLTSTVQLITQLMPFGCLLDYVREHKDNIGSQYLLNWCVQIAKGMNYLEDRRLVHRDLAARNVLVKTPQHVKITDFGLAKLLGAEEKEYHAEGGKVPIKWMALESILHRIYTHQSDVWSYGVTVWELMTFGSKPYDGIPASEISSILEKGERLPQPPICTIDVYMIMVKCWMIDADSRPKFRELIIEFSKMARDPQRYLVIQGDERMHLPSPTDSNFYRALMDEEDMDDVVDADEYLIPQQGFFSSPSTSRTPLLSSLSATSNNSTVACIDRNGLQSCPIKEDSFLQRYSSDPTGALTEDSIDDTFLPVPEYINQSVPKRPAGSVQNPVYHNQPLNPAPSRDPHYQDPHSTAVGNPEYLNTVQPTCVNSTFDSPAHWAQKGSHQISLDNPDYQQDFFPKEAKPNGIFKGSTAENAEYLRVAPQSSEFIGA

SMILES | IC50 [1] | IC50 [2] | IC50 [3]
COc1cc2ncnc(-c3cn(C)nc3-c3ccccc3)c2cc1[C@H]1CN(C)CCO1 (single isomer, unassigned) [Example 129, (S)-2-(7-methoxy-4-(1-methyl-3-phenyl-1H-pyrazol-4-yl)quinazolin-6-yl)-4-methylmorpholine or (R)-2-(7-methoxy-4-(1-methyl-3-phenyl-1H-pyrazol-4-yl)quinazolin-6-yl)-4-methylmorpholine] | 4.3 nM | 1.1 nM | 2.7 nM
COc1cc2ncnc(-c3cn(C)nc3-c3ccccc3)c2cc1OC(=O)N1CCN(C)[C@H]2C[C@H]21 (racemic) [Example 82, Cis-rac-7-methoxy-4-(1-methyl-3-phenyl-1H-pyrazol-4-yl)quinazolin-6-yl (1R,6S)-5-methyl-2,5-diazabicyclo[4.1.0]heptane-2-carboxylate] | 5.3 nM | 3.3 nM | 3.9 nM
CCOc1cc2ncnc(-c3cn(C)nc3-c3ccc(F)cc3)c2nc1NC(=O)[C@@]12C[C@@H]1CN(C)C2 (single isomer, unassigned) [Example 375, (1S,5S)—N-(7-ethoxy-4-(3-(4-fluorophenyl)-1-methyl-1H-pyrazol-4-yl)pyrido[3,2-d]pyrimidin-6-yl)-3-methyl-3-azabicyclo[3.1.0]hexane-1-carboxamide or (1R,5R)—N-(7-ethoxy-4-(3-(4-fluorophenyl)-1-methyl-1H-pyrazol-4-yl)pyrido[3,2-d]pyrimidin-6-yl)-3-methyl-3-azabicyclo[3.1.0]hexane-1-carboxamide] | 2.4 nM | 0.9 nM | 2.5 nM
COc1cc2ncnc(-c3cn(C)nc3-c3ccccc3)c2cc1NC(=O)C1CC1 [Example 344, N-(7-methoxy-4-(1-methyl-3-phenyl-1H-pyrazol-4-yl)quinazolin-6-yl)cyclopropanecarboxamide] | 1.6 nM | 1 nM | 0.8 nM
CCOc1cc2ncnc(-c3cn(C)nc3-c3ccccc3)c2nc1NC(=O)C12CC(N(C)C)(C1)C2 [Example 420, 3-(dimethylamino)-N-(7-ethoxy-4-(1-methyl-3-phenyl-1H-pyrazol-4-yl)pyrido[3,2-d]pyrimidin-6-yl)bicyclo[1.1.1]pentane-1-carboxamide] | 30.4 nM | 1.7 nM | 5.9 nM
COc1cc2ncnc(-c3cn(C)nc3-c3ccccc3)c2cc1[C@H](C)O (single isomer, unassigned) [Example 116, (S)-1-(7-methoxy-4-(1-methyl-3-phenyl-1H-pyrazol-4-yl)quinazolin-6-yl)ethan-1-ol or (R)-1-(7-methoxy-4-(1-methyl-3-phenyl-1H-pyrazol-4-yl)quinazolin-6-yl)ethan-1-ol] | 1.2 nM | 1.1 nM | 11.5 nM
CCOc1cc2ncnc(-c3cn(C4CC4)nc3-c3ccccc3)c2cc1[C@@H](C)O (single isomer, unassigned) [Example 111, (R)-1-(4-(1-cyclopropyl-3-phenyl-1H-pyrazol-4-yl)-7-ethoxyquinazolin-6-yl)ethan-1-ol or (S)-1-(4-(1-cyclopropyl-3-phenyl-1H-pyrazol-4-yl)-7-ethoxyquinazolin-6-yl)ethan-1-ol] | 1.4 nM | 0.7 nM | 2.5 nM
COc1cc2ncnc(-c3cn(CC(F)F)nc3-c3ccccc3)c2cc1NC(=O)c1cncs1 [Example 213, N-(4-(1-(2,2-difluoroethyl)-3-phenyl-1H-pyrazol-4-yl)-7-methoxyquinazolin-6-yl)thiazole-5-carboxamide] | 0.9 nM | 0.6 nM | 0.6 nM
COc1cc2ncnc(-c3cn(CC(F)F)nc3-c3ccccc3)c2cc1OCCCN1CCOCC1 [Example 23, 4-(3-((4-(1-(2,2-difluoroethyl)-3-phenyl-1H-pyrazol-4-yl)-7-methoxyquinazolin-6-yl)oxy)propyl)morpholine] | 1.9 nM | 0.9 nM | 0.8 nM
COc1cc2ncnc(-c3cn(C)nc3-c3ccccc3)c2cc1O[C@@H]1CN(C)C[C@@H]1F [Example 5, 6-(((3R,4S)-4-fluoro-1-methylpyrrolidin-3-yl)oxy)-7-methoxy-4-(1-methyl-3-phenyl-1H-pyrazol-4-yl)quinazoline] | 3 nM | 2 nM | 4.6 nM
Cc1nn(C)c(-c2ccccc2)c1-c1ncnc2cc(-c3cnn(C)c3)ccc12 [Example 481, 4-(1,3-dimethyl-5-phenyl-1H-pyrazol-4-yl)-7-(1-methyl-1H-pyrazol-4-yl)quinazoline] | 70.5 nM | 78 nM | 953 nM
CCn1cc(-c2ncnc3cc(OC)c(N4CCOCC4)cc23)c(-c2ccc(F)cc2)n1 [Example 171, 4-(4-(1-ethyl-3-(4-fluorophenyl)-1H-pyrazol-4-yl)-7-methoxyquinazolin-6-yl)morpholine] | 5.2 nM | 2.9 nM | 4.8 nM
COc1cc2ncnc(-c3cn(CC(F)F)nc3-c3ccccc3)c2cc1NC(=O)c1cccnc1 [Example 353, N-(4-(1-(2,2-difluoroethyl)-3-phenyl-1H-pyrazol-4-yl)-7-methoxyquinazolin-6-yl)nicotinamide] | 2.3 nM | 1.3 nM | 1.6 nM
CCn1cc(-c2ncnc3cc(OC)c(NC(=O)C45CC(C4)C5)nc23)c(-c2ccccc2)n1 [Example 315, N-(4-(1-ethyl-3-phenyl-1H-pyrazol-4-yl)-7-methoxypyrido[3,2-d]pyrimidin-6-yl)bicyclo[1.1.1]pentane-1-carboxamide] | 1.7 nM | 1.1 nM | 0.6 nM
COc1cc2ncnc(-c3cn(CCO)nc3-c3ccccc3)c2nc1NC(=O)c1cnn(C(F)(F)F)c1 [Example 415, N-(4-(1-(2-hydroxyethyl)-3-phenyl-1H-pyrazol-4-yl)-7-methoxypyrido[3,2-d]pyrimidin-6-yl)-1-(trifluoromethyl)-1H-pyrazole-4-carboxamide] | 3 nM | 1.5 nM | 7.8 nM
CCn1cc(-c2ncnc3cc(OC)c(NC(=O)c4cnn(CCN(C)C)c4)nc23)c(-c2ccccc2)n1 [Example 319, 1-(2-(dimethylamino)ethyl)-N-(4-(1-ethyl-3-phenyl-1H-pyrazol-4-yl)-7-methoxypyrido[3,2-d]pyrimidin-6-yl)-1H-pyrazole-4-carboxamide] | 1.1 nM | 0.7 nM | 0.4 nM
COc1cc2ncnc(-c3cn(C)nc3-c3ccccc3)c2cc1N [Preparation 190] | 1.3 nM | 0.8 nM | 5.4 nM
COc1cc2ncnc(-c3cn(C)nc3-c3ccccc3)c2cc1NC(=O)[C@@H]1CCCN1C (single isomer, unassigned) [Example 243, (R)—N-(7-methoxy-4-(1-methyl-3-phenyl-1H-pyrazol-4-yl)quinazolin-6-yl)-1-methylpyrrolidine-2-carboxamide or (S)—N-(7-methoxy-4-(1-methyl-3-phenyl-1H-pyrazol-4-yl)quinazolin-6-yl)-1-methylpyrrolidine-2-carboxamide] | 4.9 nM | 2.4 nM | 4.4 nM
CCn1cc(C(=O)Nc2cc3c(-c4cn(C)nc4-c4ccccc4)ncnc3cc2OC)cn1 [Example 219, 1-ethyl-N-(7-methoxy-4-(1-methyl-3-phenyl-1H-pyrazol-4-yl)quinazolin-6-yl)-1H-pyrazole-4-carboxamide] | 1.9 nM | 1.1 nM | 1.7 nM
COc1cc2ncnc(-c3cn(C)nc3-c3ccccc3)c2cc1N1CC[C@H](F)[C@@H](O)C1 (single isomer, unassigned) [Example 172, (3S,4S)-4-fluoro-1-(7-methoxy-4-(1-methyl-3-phenyl-1H-pyrazol-4-yl)quinazolin-6-yl) piperidin-3-ol or (3R,4R)-4-fluoro-1-(7-methoxy-4-(1-methyl-3-phenyl-1H-pyrazol-4-yl)quinazolin-6-yl) piperidin-3-ol] | 6.7 nM | 2.2 nM | 11.7 nM
COc1cc2ncnc(-c3cn(C)nc3-c3ccccc3)c2cc1-c1cccc(C(=O)NC2CC2)c1 [Example 142, N-cyclopropyl-3-(7-methoxy-4-(1-methyl-3-phenyl-1H-pyrazol-4-yl)quinazolin-6-yl)benzamide] | 3.2 nM | 2.8 nM | 7.1 nM
CCOc1cc2ncnc(-c3cn(CC(F)F)nc3-c3ccccc3)c2cc1OC [Example 19, 4-(1-(2,2-difluoroethyl)-3-phenyl-1H-pyrazol-4-yl)-7-ethoxy-6-methoxyquinazoline] | 1.6 nM | 0.8 nM | 1.3 nM
COc1cc2ncnc(-c3cn(C)nc3-c3ccccc3)c2cc1[C@@H](C)O (single isomer, unassigned) [Example 115, (R)-1-(7-methoxy-4-(1-methyl-3-phenyl-1H-pyrazol-4-yl)quinazolin-6-yl)ethan-1-ol or (S)-1-(7-methoxy-4-(1-methyl-3-phenyl-1H-pyrazol-4-yl)quinazolin-6-yl)ethan-1-ol] | 2.3 nM | 1.2 nM | 10.6 nM
COc1cc2ncnc(-c3cn(C)nc3-c3ccccc3)c2cc1NC(=O)C(C)N(C)C (stereo not drawn) [Example 220, 2-(dimethylamino)-N-(7-methoxy-4-(1-methyl-3-phenyl-1H-pyrazol-4-yl)quinazolin-6-yl)propanamide] | 5 nM | 1.7 nM | 4.7 nM
